Data: the supplement of paper PMC4862054

Tests used:
Assay in all cases: normalised viability (% of control), CellTiter-Blue; higher = more viable cells (about 100 = DMSO control)
Details in all cases: incubation time: 72 h
MFM-223 [1] = tested on: MFM-223
Outline: (§1)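 Breast cancer cell lines in 20 µl suspension were seeded onto 384-well plates pre-loaded with compound dissolved in 5 µl medium, then incubated 72 h. CellTiter-Blue reagent (2.5 µl) was added for 2 h at 37 °C and fluorescence read at 560/590 nm. Each plate was normalised to vehicle (100) and a positive kill control (0), with Z'-factor quality control. The value is normalised viability at one listed concentration of the series.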

MDA-MB-468 = tested on: MDA-MB-468
Outline: as §1

MDA-MB-436 = tested on: MDA-MB-436
Outline: as §1

HCC1599 [2] = tested on: HCC1599
Outline: as §1

HCC1143 [3] = tested on: HCC1143
Outline: as §1

CAL-120 = tested on: CAL-120
Outline: as §1

HCC1937 [4] = tested on: HCC1937
Outline: as §1

BT-474 = tested on: BT-474
Outline: as §1

MDA-MB-231 [5] = tested on: MDA-MB-231
Outline: as §1

HDQ-P1 [6] = tested on: HDQ-P1
Outline: as §1

Hs578T = tested on: Hs578T
Outline: as §1

SK-BR-3 [7] = tested on: SK-BR-3
Outline: as §1

CAL-51 [8] = tested on: CAL-51
Outline: as §1

DU-4475 [9] = tested on: DU-4475
Outline: as §1

CAL-85-1 [10] = tested on: CAL-85-1
Outline: as §1

BT-549 [11] = tested on: BT-549
Outline: as §1

MDA-MB-453 [12] = tested on: MDA-MB-453
Description: (§2)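 DSRT, CellTiter-Blue viability, 72 h incubation. Signal is normalised to DMSO and benzethonium chloride controls. Value is the normalised response at dose 7.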

CAL-148 [13] = tested on: CAL-148
Description: as §2

HDQ-P1 [14] = tested on: HDQ-P1; remark: listed apart in the source
Description: as §2

CAL-51 [15] = tested on: CAL-51; remark: listed apart in the source
Description: as §2

DU-4475 [16] = tested on: DU-4475; remark: listed apart in the source
Description: as §2

CAL-85-1 [17] = tested on: CAL-85-1; remark: listed apart in the source
Description: as §2

MFM-223 [18] = tested on: MFM-223; remark: listed apart in the source
Outline: as §1

MDA-MB-453 [19] = tested on: MDA-MB-453; remark: listed apart in the source
Outline: as §1

CAL-148 [20] = tested on: CAL-148; remark: listed apart in the source
Outline: as §1

HCC1599 [21] = tested on: HCC1599; remark: listed apart in the source
Outline: as §1

HCC1143 [22] = tested on: HCC1143; remark: listed apart in the source
Outline: as §1

HCC1937 [23] = tested on: HCC1937; remark: listed apart in the source
Outline: as §1

MDA-MB-231 [24] = tested on: MDA-MB-231; remark: listed apart in the source
Outline: as §1

HDQ-P1 [25] = tested on: HDQ-P1; remark: listed apart in the source
Outline: as §1

SK-BR-3 [26] = tested on: SK-BR-3; remark: listed apart in the source
Outline: as §1

CAL-51 [27] = tested on: CAL-51; remark: listed apart in the source
Outline: as §1

DU-4475 [28] = tested on: DU-4475; remark: listed apart in the source
Outline: as §1

BT-549 [29] = tested on: BT-549; remark: listed apart in the source
Outline: as §1

For C/C(=C\c1csc(C)n1)[C@@H]1C[C@@H]2O[C@]2(C)CCC[C@H](C)[C@H](O)[C@@H](C)C(=O)C(C)(C)[C@@H](O)CC(=O)O1 [Patupilone], the normalised viability (MFM-223 [1]; 1000 nM) was 45.7%, the normalised viability (MDA-MB-468; 1000 nM) was 54.8% and the normalised viability (MDA-MB-436; 1000 nM) was 40.1%. It also gave a normalised viability (HCC1599 [2]; 1000 nM) of 79.3%, a normalised viability (HCC1143 [3]; 1000 nM) of 32% and a normalised viability (CAL-120; 1000 nM) of 23.4%. For the same compound, the normalised viability (HCC1937 [4]; 1000 nM) was 20.4%, the normalised viability (BT-474; 1000 nM) was 25.4% and the normalised viability (MDA-MB-231 [5]; 1000 nM) was 30.7%. The normalised viability (HDQ-P1 [6]; 10 nM) was 92.5%, the normalised viability (Hs578T; 1000 nM) was 13.2% and the normalised viability (SK-BR-3 [7]; 1000 nM) was 15.2%. The normalised viability (CAL-51 [8]; 10 nM) was 59.1%, the normalised viability (DU-4475 [9]; 10 nM) was 57.5% and the normalised viability (CAL-85-1 [10]; 10 nM) was 33.9%. For the same compound, the normalised viability (BT-549 [11]; 1000 nM) was 22.1%, the normalised viability (MDA-MB-453 [12]; 100 nM) was 20.4% and the normalised viability (CAL-148 [13]; 100 nM) was 17.9%. It also gave a normalised viability (HDQ-P1 [14]; 100 nM) of 41.5%, a normalised viability (CAL-51 [15]; 100 nM) of 12.2% and a normalised viability (DU-4475 [16]; 100 nM) of 7.8%. The normalised viability (CAL-85-1 [17]; 100 nM) was 28.6%, the normalised viability (MFM-223 [18]; 1 nM) was 105% and the normalised viability (MDA-MB-453 [19]; 0.3 nM) was 114%. The normalised viability (CAL-148 [20]; 0.3 nM) was 96.3%, the normalised viability (HCC1599 [21]; 1 nM) was 108% and the normalised viability (HCC1143 [22]; 1 nM) was 91.6%. The normalised viability (HCC1937 [23]; 1 nM) was 79.4%, the normalised viability (MDA-MB-231 [24]; 1 nM) was 59.6% and the normalised viability (HDQ-P1 [25]; 0.3 nM) was 107%. The normalised viability (SK-BR-3 [26]; 1 nM) was 112%, the normalised viability (CAL-51 [27]; 0.3 nM) was 106% and the normalised viability (DU-4475 [28]; 0.3 nM) was 90.2%. It also gave a normalised viability (BT-549 [29]; 1 nM) of 106%.
CNNCc1ccc(C(=O)NC(C)C)cc1 [Procarbazine] showed a normalised viability (MFM-223 [1]; 10000 nM) of 97.8%, a normalised viability (MDA-MB-468; 10000 nM) of 112% and a normalised viability (MDA-MB-436; 10000 nM) of 81.5%. For the same compound, the normalised viability (HCC1599 [2]; 10000 nM) was 90%, the normalised viability (HCC1143 [3]; 10000 nM) was 93.6% and the normalised viability (CAL-120; 10000 nM) was 88.2%. It also gave a normalised viability (HCC1937 [4]; 10000 nM) of 81.7%, a normalised viability (BT-474; 10000 nM) of 113% and a normalised viability (MDA-MB-231 [5]; 10000 nM) of 109%. The normalised viability (HDQ-P1 [6]; 100 nM) was 109%, the normalised viability (Hs578T; 10000 nM) was 114% and the normalised viability (SK-BR-3 [7]; 10000 nM) was 106%. The normalised viability (CAL-51 [8]; 100 nM) was 96.4%, the normalised viability (DU-4475 [9]; 100 nM) was 91.3% and the normalised viability (CAL-85-1 [10]; 100 nM) was 89.2%. For the same compound, the normalised viability (BT-549 [11]; 10000 nM) was 89.5%, the normalised viability (MDA-MB-453 [12]; 1000 nM) was 113% and the normalised viability (CAL-148 [13]; 1000 nM) was 87.9%. For the same compound, the normalised viability (HDQ-P1 [14]; 1000 nM) was 95.7%, the normalised viability (CAL-51 [15]; 1000 nM) was 100% and the normalised viability (DU-4475 [16]; 1000 nM) was 105%. It also gave a normalised viability (CAL-85-1 [17]; 1000 nM) of 89.2%, a normalised viability (MFM-223 [18]; 10 nM) of 98.4% and a normalised viability (MDA-MB-453 [19]; 3 nM) of 114%. For the same compound, the normalised viability (CAL-148 [20]; 3 nM) was 103%, the normalised viability (HCC1599 [21]; 10 nM) was 97.4% and the normalised viability (HCC1143 [22]; 10 nM) was 93.1%. The normalised viability (HCC1937 [23]; 10 nM) was 87%, the normalised viability (MDA-MB-231 [24]; 10 nM) was 109% and the normalised viability (HDQ-P1 [25]; 3 nM) was 146%. The normalised viability (SK-BR-3 [26]; 10 nM) was 110%, the normalised viability (CAL-51 [27]; 3 nM) was 107% and the normalised viability (DU-4475 [28]; 3 nM) was 90.7%. The normalised viability (BT-549 [29]; 10 nM) was 111%.
